Experiments:
CCRF-CEM [1] = experiment: Cytotoxicity against human CEM cells; type: functional, cell-based
HeLa [2] = experiment: Cytotoxicity against human HeLa cells; type: functional, cell-based
A549 = experiment: Cytotoxicity against human A549 cells; type: functional, cell-based
MCF7 = experiment: Cytotoxicity against human MCF7 cells; type: functional, cell-based
Tubulin [3] = experiment: Binding affinity to tubulin (unknown origin) by fluorescence assay; type: protein-complex assay, Homo sapiens
Tubulin (Homo sapiens) [4] = biological target: T1, Tubulin (Homo sapiens) (UniProt P68371+Q9H4B7+P0DPH7+P68366+Q13509+Q71U36+P04350+Q3ZCM7+P07437+P68363+Q9BQE3+Q6PEY2+Q13885+Q9BVA1+Q9BUF5); experiment: Inhibition of MAPs-rich tubulin (unknown origin) polymerization at 50 uM; type: protein-complex assay
Tubulin [5] = experiment: Binding affinity to tubulin (unknown origin); type: protein-complex assay, Homo sapiens
Tubulin (Homo sapiens) [6] = biological target: T1, Tubulin (Homo sapiens); experiment: Inhibition of colchicine binding to tubulin (unknown origin) at 100 uM; type: protein-complex assay
Tubulin (Homo sapiens) [7] = biological target: T1, Tubulin (Homo sapiens); experiment: Inhibition of colchicine binding to tubulin (unknown origin) at 50 uM; type: protein-complex assay
Tubulin (Homo sapiens) [8] = biological target: T1, Tubulin (Homo sapiens); experiment: Inhibition of colchicine binding to tubulin (unknown origin) at 25 uM; type: protein-complex assay
[9] = Cytotoxicity against human Non-small cell lung cancer cell; type: functional, cell-based; conditions: Cancer cell lines
CCRF-CEM [10] = experiment: Cell cycle arrest in human CEM cells assessed as accumulation at G2/M phase; type: functional
[11] = Cell cycle arrest in human CCRF-CEM/VLB100 cells assessed as accumulation at G2/M phase; type: functional, cell-based
CCRF-CEM [12] = experiment: Cell cycle arrest in human CEM cells assessed as accumulation at sub-G1 phase by measuring 2N DNA content after 72 hrs; type: functional
[13] = Cell cycle arrest in human CCRF-CEM/VLB100 cells assessed as accumulation at sub-G1 phase by measuring 2N DNA content after 72 hrs; type: functional, cell-based
[14] = Induction of apoptosis in human CCRF-CEM/VLB100 cells assessed as reduction of mitochondrial potential after 24 hrs; type: functional; set-up: scale not given: the % may be the effect or the level left
[15] = Induction of apoptosis in human CCRF-CEM/VLB100 cells assessed as reduction of mitochondrial potential after 72 hrs; type: functional; set-up: scale not given: the % may be the effect or the level left
CCRF-CEM [16] = experiment: Antitumor activity against human CEM cells xenografted in mouse assessed as reduction of tumor at 300 mg/kg/day, po administered for 26 days; type: functional; conditions: 624 h, read-out: GI
CCRF-CEM [17] = experiment: Antitumor activity against human CEM cells xenografted in mouse assessed as reduction of tumor at 10 mg/kg/day, iv administered for 26 days; type: functional; conditions: 624 h, read-out: GI
[18] = Antitumor activity against human CCRF-CEM/VLB100 cells xenografted in mouse assessed as reduction of tumor at 300 mg/kg/day, po administered for 32 days; type: functional; conditions: 768 h, read-out: GI
HeLa [19] = experiment: Antimitotic activity against human HeLa cells; type: functional, cell-based
HeLa [20] = experiment: Cell cycle arrest in human HeLa cells assessed as accumulation at G2/M phase by measuring 4N DNA content at 6.4 uM by flow cytometry; type: functional

Structure (SMILES) | IC50 (CCRF-CEM [1]) | IC50 (HeLa [2]) | IC50 (A549) | IC50 (MCF7) | further results
COc1ccc2c(c1OC)C(=O)O[C@@H]2[C@H]1c2c(cc3c(c2OC)OCO3)CCN1Cc1ccc([N+](=O)[O-])cc1 | 10 µM | 23.7 µM | 49 µM | 38.2 µM | 
COc1ccc(CN2CCc3cc4c(c(OC)c3[C@@H]2[C@H]2OC(=O)c3c2ccc(OC)c3OC)OCO4)cc1 | 7.7 µM | 17.9 µM | 33.5 µM | 28.7 µM | 
COc1ccc2c(c1OC)C(=O)O[C@@H]2[C@@H]1NCCc2cc3c(c(OC)c21)OCO3 | 8.9 µM | 20.9 µM | 41.6 µM | 33.6 µM | 
COc1ccc2c(c1OC)C(=O)O[C@@H]2[C@H]1c2c(c([N+](=O)[O-])c3c(c2OC)OCO3)CCN1C |  |  |  |  | Kd (Tubulin [3]): 86 µM
COc1ccc2c(c1OCCCCS(=O)(=O)O)C(=O)O[C@@H]2[C@H]1c2c(cc3c(c2OC)OCO3)CCN1C |  |  |  |  | inhibition (Tubulin (Homo sapiens) [4]): 74%
COc1ccc2c(c1OC)C(=O)O[C@@H]2[C@H]1c2c(c(N)c3c(c2OC)OCO3)CCN1C |  |  |  |  | Kd (Tubulin [3]): 14 µM
CCOC(=O)CN1CCc2cc3c(c(OC)c2[C@@H]1[C@H]1OC(=O)c2c1ccc(OC)c2OC)OCO3 | 13.6 µM | 32.4 µM | 72.3 µM | 52.6 µM | 
COc1ccc2c(c1OCCCCS(=O)(=O)O)C(=O)O[C@@H]2[C@H]1c2c(c(Br)c3c(c2OC)OCO3)CCN1C |  |  |  |  | inhibition (Tubulin (Homo sapiens) [4]): 68%
COc1ccc2c(c1OC)C(=O)O[C@@H]2[C@H]1c2c(c(Br)c3c(c2OC)OCO3)CCN1C |  |  |  |  | Kd (Tubulin [5]): 54 µM; inhibition (Tubulin (Homo sapiens) [6]): 66%; inhibition (Tubulin (Homo sapiens) [7]): 40%; inhibition (Tubulin (Homo sapiens) [8]): 23%; IC50 [9]: 4 µM; Activity (CCRF-CEM [10]): 45%; Activity [11]: 47%; Activity (CCRF-CEM [12]): 57%; Activity [13]: 75%; Activity [14]: 49%; Activity [15]: 99%; inhibition in vivo at 300 mg/kg/day (CCRF-CEM [16]): 80%; inhibition in vivo at 10 mg/kg/day (CCRF-CEM [17]): 80%; inhibition in vivo at 300 mg/kg/day [18]: 81%; EC50 (HeLa [19]): 7.7 µM; Activity (HeLa [20]): 51.8%
COc1ccc2c(c1OC)C(=O)O[C@@H]2[C@H]1c2c(cc3c(c2OC)OCO3)CCN1Cc1ccccc1 | 8.3 µM | 19.4 µM | 37.7 µM | 31.2 µM | 
COc1ccc2c(c1OC)C(=O)O[C@@H]2[C@H]1c2c(cc3c(c2OC)OCO3)CCN1Cc1cccc(Br)c1 | 7.5 µM | 17.3 µM | 32.1 µM | 27.8 µM | 

— ChEMBL document CHEMBL3596161, “Progress Toward the Development of Noscapine and Derivatives as Anticancer Agents” (J Med Chem, 2015)
